Assays:
[1] = system: trypsin-induced itching (scratching behavior); assay: Trypsin-induced scratching behavior in mice (cheek injection, bouts counted for 30 minutes); assay type: in vivo, Male C57BL/6 mice; details: for number of scratching bouts compared with the only trypsin-injected mice: co-injected with 200 μg trypsin into skin of shaved right cheek, 30 minutes, 7.4 μg tubastatin A HCl or 61.4 ng M344, unpaired t-test
Procedure: Male C57BL/6 mice (6-week-old) were divided into groups of 3 to 5 animals, and isolated under a 12-hour light/dark cycle while being allowed to freely access water and food. Trypsin is diluted in phosphate buffered saline (PBS) to have the working concentration. […] All drug-containing stock solutions were stored in a freezer at −20 □, dissolved immediately prior to the behavioral experiment, and diluted with PBS to the final working concentration. For behavioral experiments, the right cheek of all mice was shaved, and the drug was injected after the acclimation period in an observation chamber for 2 days (2 hours/day) prior to the experiment date and 1 hour on the day of the experiment. The mice were subdued by being gently grabbed by a hand without anesthesia for drug treatment. All drugs were injected into the skin layer of the shaved right cheek at 20 μL using a 31-G insulin syringe. After returning to the observation chamber, all mice were videotaped for 30 minutes immediately after drug injection to evaluate itching behavior. For the behavioral experiment, the action of scratching the drug-injected site with a hind leg, and then placing the leg on the ground again or licking the site with a mouth was counted as 1 bout. All behavioral experiments were evaluated by testers in a blinded drug test. Statistical analysis for the experiments was performed using an unpaired t-test, and P<0.05 or P<0.01 was considered statistically significant (*: P<0.05; **: P<0.01). Data was expressed as mean±standard error (SEM).

HDAC6 = biological target: T1, HDAC6 (Homo sapiens, UniProt Q9UBN7); details: cited from earlier work; for Selectivity: HDAC6 inhibitor selectivity, in words; for IC50: HDAC6 inhibitor
T1 sequence (Q9UBN7 1-1215): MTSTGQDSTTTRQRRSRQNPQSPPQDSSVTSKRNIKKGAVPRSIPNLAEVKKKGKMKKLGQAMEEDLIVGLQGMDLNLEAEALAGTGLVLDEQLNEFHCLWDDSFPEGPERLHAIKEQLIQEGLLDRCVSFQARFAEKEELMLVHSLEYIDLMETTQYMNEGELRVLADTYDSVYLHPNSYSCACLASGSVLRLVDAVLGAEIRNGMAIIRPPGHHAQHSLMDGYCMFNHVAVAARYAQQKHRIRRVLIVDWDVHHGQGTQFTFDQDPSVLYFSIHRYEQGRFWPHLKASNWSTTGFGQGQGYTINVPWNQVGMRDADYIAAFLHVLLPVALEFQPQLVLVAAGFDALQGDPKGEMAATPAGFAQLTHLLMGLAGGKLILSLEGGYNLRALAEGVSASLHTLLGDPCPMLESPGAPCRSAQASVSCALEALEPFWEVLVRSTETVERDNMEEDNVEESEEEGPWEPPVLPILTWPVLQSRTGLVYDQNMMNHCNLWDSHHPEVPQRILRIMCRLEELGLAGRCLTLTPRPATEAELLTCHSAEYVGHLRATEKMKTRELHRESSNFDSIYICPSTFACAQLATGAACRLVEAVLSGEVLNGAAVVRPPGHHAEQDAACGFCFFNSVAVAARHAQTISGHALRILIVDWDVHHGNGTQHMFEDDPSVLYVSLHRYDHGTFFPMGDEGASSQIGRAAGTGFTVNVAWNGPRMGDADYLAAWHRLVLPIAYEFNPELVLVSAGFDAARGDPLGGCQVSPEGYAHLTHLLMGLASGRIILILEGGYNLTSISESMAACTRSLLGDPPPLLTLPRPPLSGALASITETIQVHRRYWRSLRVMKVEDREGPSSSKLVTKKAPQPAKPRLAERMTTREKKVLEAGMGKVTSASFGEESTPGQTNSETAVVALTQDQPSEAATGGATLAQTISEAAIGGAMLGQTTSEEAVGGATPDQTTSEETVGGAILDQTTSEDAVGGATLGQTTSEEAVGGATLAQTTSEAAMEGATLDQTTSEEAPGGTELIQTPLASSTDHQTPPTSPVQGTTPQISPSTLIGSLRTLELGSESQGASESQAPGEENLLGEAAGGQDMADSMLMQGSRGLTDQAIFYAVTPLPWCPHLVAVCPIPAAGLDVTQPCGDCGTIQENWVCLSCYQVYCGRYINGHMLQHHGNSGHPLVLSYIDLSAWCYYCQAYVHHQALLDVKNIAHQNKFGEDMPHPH

With `CN1CCc2c(c3ccccc3n2Cc2ccc(C(=O)NO)cc2)C1` [Tubastatin A, tubastatin A] the “number of scratching bouts compared with the only trypsin-injected mice” value [1] was “statistically significant smaller number of scratching bouts”.
In the case of `CN(C)c1ccc(C(=O)NCCCCCCC(=O)NO)cc1` [M344], the “number of scratching bouts compared with the only trypsin-injected mice” value [1] is listed as “statistically significant smaller number of scratching bouts”, the Selectivity (HDAC6) is listed as “High” and the IC50 (HDAC6) is listed as 88 nM.
In the case of trypsin, the “scratching bouts for 30 minutes” value ([1]; 200 μg trypsin alone injected into cheek skin of normal mice, FIG. 1) is reported as “approximately 100 bouts”.
For `O=C(NO)c1cnc(NC2(c3cccc(F)c3)CCCCC2)nc1` [ACY-775], the Selectivity (HDAC6) is listed as “Very high” and the IC50 (HDAC6) is listed as 7.5 nM.
In the case of `O=C(NO)C1=CCCC1` [BRD9757], the Selectivity (HDAC6) is listed as “Very high” and the IC50 (HDAC6) is listed as 30 nM.
